Patent publication US20250179059A1 (The Regents of the University of California, priority 2021, published 2025)
pIC50: −log10 of the molar value. One block for each compound: values may come before it.

Tests used:
[1] = test system: human SKM-1 acute myeloid leukemia cells; assay: SKM-1 antiproliferation cell-based assay (ATPlite); settings: Homo sapiens, SKM-1, 96 h, SKM-1 antiproliferation assay, 4 days, Table C2
Method in brief: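 Log-phase cells in RPMI 1640/15% FBS were seeded at 34722 cells/mL and exposed for 4 days to nine-concentration DMSO serial dilutions in triplicate. Viability was read as ATP luminescence (ATPlite 1step), and IC50 values came from variable-slope non-linear regression.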

[2] = target: T1, human BRD4 bromodomain II (Homo sapiens, UniProt O60885); assay: Bromodomain binding assay (AlphaScreen), BRD4 BDII; settings: AlphaScreen assay, Table C2; read-out: BRD4 BDII IC50
T1 construct: human BRD4 bromodomain II [based on Genbank NM_058243, residues 349-460]; host or cells: E. coli
Method in brief: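 AlphaScreen competition with biotinylated H4 peptide (aa 1-21, K5/K8/K12/K16Ac), using nickel-chelate acceptor and streptavidin donor beads. Targets were His6-BRD4 BDI (44-170) or BDII (349-460), with a 30 min compound preincubation over a 10-point 3-fold series. IC50 was fitted from percentage peptide binding.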

GI50 [1]: 300 to 3000 nM
pIC50 [2]: 8.00 to 9.00
SMILES: CN1CCN(c2ccc(-c3cccc(-c4cncc(N5CC6(CNC6)C5)c4)c3O)cc2Cl)C1=O [Example 335, 1-(3′-(5-(2,6-diazaspiro[3.3]heptan-2-yl)pyridin-3-yl)-3-chloro-2′-hydroxy-[1,1′-biphenyl]-4-yl)-3-methylimidazolidin-2-one]

GI50 [1]: 300 to 3000 nM
pIC50 [2]: < 7.00
SMILES: CC1CC(=O)N(c2ccc(-c3cccc(-c4ccnc(N5CCNCC5)c4)c3O)cc2Cl)C1 (centres unmarked) [Example 340, 1-(3-chloro-2′-hydroxy-3′-(2-(piperazin-1-yl)pyridin-4-yl)-[1,1′-biphenyl]-4-yl)-4-methylpyrrolidin-2-one]

GI50 [1]: 300 to 3000 nM
pIC50 [2]: 7.00 to 8.00
SMILES: O=C1N(c2ccc(-c3cccc(-c4ccnc(N5CCNCC5)c4)c3O)cc2Cl)CCC12CC2 [Example 341, 5-(3-chloro-2′-hydroxy-3′-(2-(piperazin-1-yl)pyridin-4-yl)-[1,1′-biphenyl]-4-yl)-5-azaspiro[2.4]heptan-4-one]

GI50 [1]: 30 to 300 nM
pIC50 [2]: 8.00 to 9.00
SMILES: CN1CCN(c2ccc(-c3cccc(-c4cc(N5CCNCC5)c(=O)n(C)c4)c3O)cc2Cl)C1=O [Example 342, 5-(3′-chloro-2-hydroxy-4′-(3-methyl-2-oxoimidazolidin-1-yl)-[1,1′-biphenyl]-3-yl)-1-methyl-3-(piperazin-1-yl)pyridin-2(1H)-one]

GI50 [1]: 30 to 300 nM
pIC50 [2]: 8.00 to 9.00
SMILES: CN1CCN(c2ccc(-c3cccc(-c4cnnc(N5CCNCC5)c4)c3O)cc2Cl)C1=O [Example 343, 1-(3-chloro-2′-hydroxy-3′-(6-(piperazin-1-yl)pyridazin-4-yl)-[1,1′-biphenyl]-4-yl)-3-methylimidazolidin-2-one]

GI50 [1]: 300 to 3000 nM
pIC50 [2]: 7.00 to 8.00
SMILES: CNC(=O)c1cc(-c2cccc(-c3ccc(NC(C)=O)c(F)c3)c2O)cc(N2CCNCC2)n1 [Example 349, 4-(4′-acetamido-3′-fluoro-2-hydroxy-[1,1′-biphenyl]-3-yl)-N-methyl-6-(piperazin-1-yl)picolinamide]

GI50 [1]: 300 to 3000 nM
pIC50 [2]: 7.00 to 8.00
SMILES: CC(=O)Nc1ccc(-c2cccc(-c3cc(OC4CC4)nc(N4CCNCC4)c3)c2O)cc1F [Example 351, N-(3′-(2-cyclopropoxy-6-(piperazin-l-yl)pyridin-4-yl)-3-fluoro-2′-hydroxy-[1,1′-biphenyl]-4-yl)acetamide]

GI50 [1]: ≥ 3000 nM
pIC50 [2]: < 7.00
SMILES: CN1CCN(c2ccc(-c3cc(F)cc(-c4ccnc(N5CCNC5=O)c4)c3O)cc2Cl)C1=O [Example 354, 1-(3-chloro-5′-fluoro-2′-hydroxy-3′-(2-(2-oxoimidazolidin-1-yl)pyridin-4-yl)-[1,1′-biphenyl]-4-yl)-3-methylimidazolidin-2-one]

GI50 [1]: 30 to 300 nM
pIC50 [2]: 8.00 to 9.00
SMILES: CN1CCN(c2ccc(-c3cc(F)cc(-c4cnc(C#N)c(N5CCNCC5)c4)c3O)cc2Cl)C1=O [Example 357, 5-(3′-chloro-5-fluoro-2-hydroxy-4′-(3-methyl-2-oxoimidazolidin-1-yl)-[1,1′-biphenyl]-3-yl)-3-(piperazin-1-yl)picolinonitrile]

GI50 [1]: 30 to 300 nM
pIC50 [2]: 8.00 to 9.00
SMILES: CN1CCN(c2ccc(-c3cc(F)cc(-c4ccnc(N5CCC[C@H](N)C5)c4)c3O)cc2Cl)C1=O [Example 360, (S)-1-(3′-(2-(3-aminopiperidin-1-yl)pyridin-4-yl)-3-chloro-5′-fluoro-2′-hydroxy-[1,1′-biphenyl]-4-yl)-3-methylimidazolidin-2-one]

GI50 [1]: 30 to 300 nM
pIC50 [2]: 7.00 to 8.00
SMILES: CC(=O)Nc1ccc(-c2cccc(-c3cc(OC4CCC(O)CC4)nc(N4CCNCC4)c3)c2O)cc1F (centres unmarked) [Example 361, N-(3-fluoro-2′-hydroxy-3′-(2-((4-hydroxycyclohexyl)oxy)-6-(piperazin-1-yl)pyridin-4-yl)-[1,1′-biphenyl]-4-yl)acetamide]

Second part, the compound before the results:

SMILES: CC(=O)Nc1ccc(-c2cccc(-c3ccc(C(F)(F)F)c(N4CCNCC4)c3)c2O)cc1F [Example 336, N-(3-fluoro-2′-hydroxy-3″-(piperazin-1-yl)-4″-(trifluoromethyl)-[1,1′:3′,1″-terphenyl]-4-yl)acetamide acetate]
GI50 [1]: 300 to 3000 nM
pIC50 [2]: 7.00 to 8.00

SMILES: Cc1cc(-c2cc(C)nc(N3CCNCC3)c2)c(O)c(-c2ccc(N3CCN(C)C3=O)c(Cl)c2)c1 [Example 337, 1-(3-chloro-2′-hydroxy-5′-methyl-3′-(2-methyl-6-(piperazin-1-yl)pyridin-4-yl)-[1,1′-biphenyl]-4-yl)-3-methylimidazolidin-2-one]
GI50 [1]: 30 to 300 nM
pIC50 [2]: 8.00 to 9.00

SMILES: Cc1cc(-c2cccc(-c3ccc(N4CCN(C)C4=O)c(Cl)c3)c2O)cc(N2CCNCC2)n1 [Example 338, 1-(3-chloro-2′-hydroxy-3′-(2-methyl-6-(piperazin-1-yl)pyridin-4-yl)-[1,1′-biphenyl]-4-yl)-3-methylimidazolidin-2-one]
GI50 [1]: 30 to 300 nM
pIC50 [2]: 8.00 to 9.00

SMILES: COc1cc(-c2cccc(-c3ccc(NC(C)=O)c(F)c3)c2O)cc(N2CCNCC2)n1 [Example 339, N-(3-fluoro-2′-hydroxy-3′-(2-methoxy-6-(piperazin-1-yl)pyridin-4-yl)-[1,1′-biphenyl]-4-yl)acetamide]
GI50 [1]: 300 to 3000 nM
pIC50 [2]: 7.00 to 8.00

SMILES: CN1CCN(c2ccc(-c3cccc(-c4cc(-c5ccccc5)nc(N5CCNCC5)c4)c3O)cc2Cl)C1=O [Example 344, 1-(3-chloro-2′-hydroxy-3′-(2-phenyl-6-(piperazin-1-yl)pyridin-4-yl)-[1,1′-biphenyl]-4-yl)-3-methylimidazolidin-2-one]
GI50 [1]: 30 to 300 nM
pIC50 [2]: 7.00 to 8.00

SMILES: CCC1CCN(c2ccc(-c3cccc(-c4ccnc(N5CCNCC5)c4)c3O)cc2Cl)C1=O (centres unmarked) [Example 345, 1-(3-chloro-2′-hydroxy-3′-(2-(piperazin-1-yl)pyridin-4-yl)-[1,1′-biphenyl]-4-yl)-3-ethylpyrrolidin-2-one]
GI50 [1]: 300 to 3000 nM
pIC50 [2]: < 7.00

SMILES: CCN1CCN(c2ccc(-c3cccc(-c4ccnc(N5CCNCC5)c4)c3O)cc2Cl)C1=O [Example 346, 1-(3-chloro-2′-hydroxy-3′-(2-(piperazin-1-yl)pyridin-4-yl)-[1,1′-biphenyl]-4-yl)-3-ethylimidazolidin-2-one]
GI50 [1]: 300 to 3000 nM
pIC50 [2]: < 7.00

SMILES: CN1CCN(c2ccc(-c3cc(F)cc(-c4ccnc(N(C)CCN)c4)c3O)cc2Cl)C1=O [Example 347, 1-(3′-(2-((2-aminoethyl)(methyl)amino)pyridin-4-yl)-3-chloro-5′-fluoro-2′-hydroxy-[1,1′-biphenyl]-4-yl)-3-methylimidazolidin-2-one]
GI50 [1]: 300 to 3000 nM
pIC50 [2]: 7.00 to 8.00

SMILES: CC(=O)Nc1ccc(-c2cccc(-c3cc(N)nc(N4CCNCC4)c3)c2O)cc1F [Example 348, N-(3′-(2-amino-6-(piperazin-1-yl)pyridin-4-yl)-3-fluoro-2′-hydroxy-[1,1′-biphenyl]-4-yl)acetamide]
GI50 [1]: 30 to 300 nM
pIC50 [2]: 8.00 to 9.00

SMILES: CN1CCN(c2ccc(-c3cc(F)cc(-c4ccnc(N5CCC(N)CC5)c4)c3O)cc2Cl)C1=O [Example 350, 1-(3′-(2-(4-aminopiperidin-1-yl)pyridin-4-yl)-3-chloro-5′-fluoro-2′-hydroxy-[1,1′-biphenyl]-4-yl)-3-methylimidazolidin-2-one]
GI50 [1]: 30 to 300 nM
pIC50 [2]: 7.00 to 8.00

SMILES: CN1CCN(c2ccc(-c3cc(F)cc(-c4ccnc(N5CC6(CNC6)C5)c4)c3O)cc2Cl)C1=O [Example 352, 1-(3′-(2-(2,6-diazaspiro[3.3]heptan-2-yl)pyridin-4-yl)-3-chloro-5′-fluoro-2′-hydroxy-[1,1′-biphenyl]-4-yl)-3-methylimidazolidin-2-one]
GI50 [1]: 300 to 3000 nM
pIC50 [2]: 7.00 to 8.00

SMILES: CN1CCN(c2ccc(-c3cc(F)cc(-c4ccnc(N5CC[C@H](N)C5)c4)c3O)cc2Cl)C1=O [Example 353, (S)-1-(3′-(2-(3-aminopyrrolidin-1-yl)pyridin-4-yl)-3-chloro-5′-fluoro-2′-hydroxy-[1,1′-biphenyl]-4-yl)-3-methylimidazolidin-2-one]
GI50 [1]: 30 to 300 nM
pIC50 [2]: 8.00 to 9.00

SMILES: CN1CCN(c2ccc(-c3cccc(-c4cc(CO)cc(N5CCNCC5)c4)c3O)cc2Cl)C1=O [Example 355, 1-(3-chloro-2′-hydroxy-3″-(hydroxymethyl)-5″-(piperazin-1-yl)-[1,1′:3′,1″-terphenyl]-4-yl)-3-methylimidazolidin-2-one]
GI50 [1]: 30 to 300 nM
pIC50 [2]: 8.00 to 9.00

SMILES: CC1=CCN(c2ccc(-c3cccc(-c4ccnc(N5CCNCC5)c4)c3O)cc2Cl)C1=O [Example 356, 1-(3-chloro-2′-hydroxy-3′-(2-(piperazin-1-yl)pyridin-4-yl)-[1,1′-biphenyl]-4-yl)-3-methyl-1H-pyrrol-2(5H)-one]
GI50 [1]: 30 to 300 nM
pIC50 [2]: 8.00 to 9.00

SMILES: CN1CCN(c2ccc(-c3cc(F)cc(-c4ccc(CO)c(N5CCNCC5)c4)c3O)cc2Cl)C1=O [Example 358, 1-(3-chloro-5′-fluoro-2′-hydroxy-4″-(hydroxymethyl)-3″-(piperazin-1-yl)-[1,1′:3′,1″-terphenyl]-4-yl)-3-methylimidazolidin-2-one]
GI50 [1]: 30 to 300 nM
pIC50 [2]: 8.00 to 9.00

SMILES: C[C@@H]1CN(c2cc(-c3cc(F)cc(-c4ccc(N5CCN(C)C5=O)c(Cl)c4)c3O)ccn2)CCN1 [Example 359, (R)-1-(3-chloro-5′-fluoro-2′-hydroxy-3′-(2-(3-methylpiperazin-1-yl)pyridin-4-yl)-[1,1′-biphenyl]-4-yl)-3-methylimidazolidin-2-one]
GI50 [1]: 30 to 300 nM
pIC50 [2]: 8.00 to 9.00

SMILES: Cc1cc(-c2ccnc(N3CC[C@H](N)C3)c2)c(O)c(-c2ccc(N3CCN(C)C3=O)c(Cl)c2)c1 [Example 362, (S)-1-(3′-(2-(3-aminopyrrolidin-1-yl)pyridin-4-yl)-3-chloro-2′-hydroxy-5′-methyl-[1,1′-biphenyl]-4-yl)-3-methylimidazolidin-2-one]
GI50 [1]: 30 to 300 nM
pIC50 [2]: 8.00 to 9.00
